This series concerns luciferase gene expression in HEK 293 cells in response to Comp. 004. As to the kind of experiment: Screen of riboswitch constructs with 12C6-1 variant aptamers (libraries N1-N5) against Comp. 004, luciferase in HEK 293 cells. The format is cell-based, human. The settings on record: library N1 (J2-4), HEK 293, 25 M [sic] Comp. 004. From the text: Cloning of riboswitch constructs containing 12C6-1 variant aptamer sequences: 12C6-1 aptamer sequence was used as template, and nucleobases were randomized at certain position in the sequence. Aptamers incorporating random mutagenesis were synthesized by Integrated DNA Technologies, Inc. Golden Gate cloning strategy (New England Biolabs, NEB) was used to clone the synthesized aptamer sequences into intron-exon-intron cassette to replace the 12C6-1 aptamer in the Luci-12C6-1 riboswitch construct, generating riboswitch constructs containing variant aptamer sequences.
To further improve the riboswitch activity in responding to Comp. 004 and related compounds, the aptamer sequence 12C6-1 was subject to mutagenesis to generate aptamer variants, and the riboswitches containing the variant aptamers were screened against Comp. 004 for the ones that have improved dynamic range of induced gene expression (the fold induction), in comparison with the fold induction by parental riboswitch construct Luci-12C6-1. […] These loop or junction region alone or together with stem region in proximity were chosen for random mutagenesis to generate riboswitches with re-engineered aptamer sequences with improved activity.
Five aptamer libraries N1, N2, N3, N4 and N5 were generated by randomizing nucleotides at positions in J2-4, J2-3/J3-3a/J3a-2/P3, L3a, J4-5/J5-4/P4 and L5 regions of the parent 12C6-1 sequence, respectively (see FIGS. 3a and 3b). Single bacterial colonies were picked and plasmids containing variant riboswitch constructs were screened in HEK 293 cells for improved gene regulation activity in response to 25 µM Comp. 004 as compared to parent riboswitch construct Luci-12C6-1.
As for “N1_2D1 (CTGGGGAGTCCTTCATGCGGGGC; chemistry not given here)”, the “Fold (induction of luciferase gene expression)” value (“Fold” for short) amounted to 4.38 fold.

Consider “N1_2D2 (CTGGGGAGTCCTTCATGCGGGGC; chemistry not given here)”, for which the “Fold” value is recorded as 102.23 fold.

As for “N1_2D3 (CTGGGGAGTCCTTCATGCGGGGC; chemistry not given here)”, the “Fold” value was found to be 5.40 fold.

On to “N1_2D5 (CTGGGGAGTCCTTCATGCGGGGC; chemistry not given here)”, for which the “Fold” value is 35.71 fold.

Take “N1_2D6 (CTGGGGAGTCCTTCATGCGGGGC; chemistry not given here)”: the “Fold” value worked out at 13.57 fold.

“N1_2D7 (CTGGGGAGTCCTTCATGCGGGGC; chemistry not given here)”: the “Fold” value was 2.16 fold.

Regarding “N1_2D9 (CTGGGGAGTCCTTCATGCGGGGC; chemistry not given here)”, the “Fold” value came to 9.74 fold.

As to “N1_2D10 (CTGGGGAGTCCTTCATGCGGGGC; chemistry not given here)”, the “Fold” value was determined as 15.53 fold.

Regarding “N1_2D11 (CTGGGGAGTCCTTCATGCGGGGC; chemistry not given here)”, the “Fold” value came out at 1.96 fold.

As for “N1_2D12 (CTGGGGAGTCCTTCATGCGGGGC; chemistry not given here)”, the “Fold” value is 3.26 fold.

As to “N1_2E2 (CTGGGGAGTCCTTCATGCGGGGC; chemistry not given here)”, the “Fold” value is listed as 7.86 fold.

With “N1_2E3 (CTGGGGAGTCCTTCATGCGGGGC; chemistry not given here)”, the “Fold” value is given as 5.79 fold.

As to “N1_2E4 (CTGGGGAGTCCTTCATGCGGGGC; chemistry not given here)”, the “Fold” value is listed as 10.44 fold.

“N1_2E5 (CTGGGGAGTCCTTCATGCGGGGC; chemistry not given here)”: the “Fold” value turned out to be 35.05 fold.

With “N1_2E6 (CTGGGGAGTCCTTCATGCGGGGC; chemistry not given here)”, the “Fold” value came to 30.39 fold.

In the case of “N1_2E7 (CTGGGGAGTCCTTCATGCGGGGC; chemistry not given here)”, the “Fold” value worked out at 19.91 fold.

As for “N1_2E8 (CTGGGGAGTCCTTCATGCGGGGC; chemistry not given here)”, the “Fold” value came to 5.81 fold.

With “N1_2E9 (CTGGGGAGTCCTTCATGCGGGGC; chemistry not given here)”, the “Fold” value is given as 11.27 fold.

Regarding “N1_2E10 (CTGGGGAGTCCTTCATGCGGGGC; chemistry not given here)”, the “Fold” value was 2.86 fold.

With “N1_2E11 (CTGGGGAGTCCTTCATGCGGGGC; chemistry not given here)”, the “Fold” value is 15.45 fold.

Take “N1_2F1 (CTGGGGAGTCCTTCATGCGGGGC; chemistry not given here)”: the “Fold” value turned out to be 8.34 fold.

Take “N1_2F3 (CTGGGGAGTCCTTCATGCGGGGC; chemistry not given here)”: the “Fold” value came to 15.56 fold.

In the case of “N1_2F4 (CTGGGGAGTCCTTCATGCGGGGC; chemistry not given here)”, the “Fold” value is given as 4.74 fold.

Regarding “N1_2F6 (CTGGGGAGTCCTTCATGCGGGGC; chemistry not given here)”, the “Fold” value stood at 185.92 fold.

As to “N1_2F7 (CTGGGGAGTCCTTCATGCGGGGC; chemistry not given here)”, the “Fold” value stood at 41.88 fold.

In the case of “N1_2F9 (CTGGGGAGTCCTTCATGCGGGGC; chemistry not given here)”, the “Fold” value is on record as 1.71 fold.

As for “N1_2F10 (CTGGGGAGTCCTTCATGCGGGGC; chemistry not given here)”, the “Fold” value stood at 10.84 fold.

For the origin of these results see US20250101436A1, “APTAMERS AND SMALL MOLECULE LIGANDS” (MeiraGTx UK II Limited, priority 2021, published 2025).
